What was measured:
Assay type in all cases: cell-based
[1] = tested on: HBeAg; test: PHH HBV natural infection assay, HBeAg (alphalisa); settings: Hepatitis B virus, Hepatocyte, read-out: HBeAg IC50
Procedure: (§1) Detailed procedures regarding primary human hepatocyte (PHH) HBV natural infection assay are described as below. One tube of frozen PHH (10 million cells) is thawed in 37° C. water bath and then transferred to 20 mL of PHH thawing medium (Sigma, InVitroGRO HT Medium, Cat. S03319) with gently mixing. The cells were then centrifuged at […] for 5 min, the supernatant was discarded and the tube was refilled with 25 mL of PHH plating medium (Sigma, InVitroGRO CP Medium, Cat. S03317). The tube was shaken very gently to re-suspend all cells, and then 50 μL of cells were transferred to each well 384-well collagen I coated plate with appropriate liquid handling equipment, e.g. Integra VIAFLO384 or Agilent Bravo. The cells were then cultured for 24 hours in a cell incubator. For HBV infection, after PHH attachment on the culture plate, the plating medium was removed and replenished with PHH culture medium containing HBV virus. The PHH culture medium was prepared with Dulbecco's Modified Eagle Medium (DMEM)/F12 (1:1 in volume ratio) containing 10% fetal bovine serum (Gibco, Cat. 10099141), 5 ng/mL human epidermal growth factor (Gibco, Cat. PHG0311L), 20 ng/mL dexamethasone (Sigma, Cat. D4902-100 mg), 250 ng/mL human recombinant insulin (Gibco, Cat. 41400045) and 100 U/mL penicillin. HBV virus at 200 genome equivalent (GE) per cell with 4% PEG8000 (Sigma, Cat. P1458) containing culture medium were added to the PHH culture medium for infection. The cells were then cultured for 24 hours in cell incubator. Then the cell culture supernatant was removed. The HBV-infected PHH were cultured with sandwich culture method with MEI culture medium containing 1% DMSO and 0.25 mg/mL matrix gel for 72 hours. The supernatant was then refreshed with PHH culture medium containing different concentrations of testing compounds for two times with 72-hour interval. At the end of treatment, the supernatant was collected for viral markers measurements, including HBsAg, HBeAg, HBV DNA and cytotoxicity. HBsAg and HBeAg were detected using alphalisa method using their specific antibodies. For HBV DNA detection, HBV DNA Quantitative Fluorescence Diagnostic Kit (Sansure Biotech Inc.) was used following the manufacture's protocol. Cytotoxicity was determined using Cell Counting Kit-8 (CCK8, Dojindo Molecular Technologies, Inc.).
(§2) The compounds of the present invention were tested for their capacity to inhibit HBsAg and HBeAg as described herein.

[2] = Cytotoxicity in PHH natural infection assay (Cell Counting Kit-8); settings: HBV-infected primary human hepatocytes, CCK8
Procedure: as §1

[3] = tested on: HBsAg; test: PHH HBV natural infection assay, HBsAg (alphalisa); settings: Hepatitis B virus, Hepatocyte, read-out: HBsAg IC50
Procedure: as §1, §2

Work on `CS(=O)(=O)c1cc(C(=O)NC2CC3(C2)CN(c2nc4cc(Cl)ccc4o2)C3)ccn1` [Example 52, N-[2-(5-chloro-1,3-benzoxazol-2-yl)-2-azaspiro[3.3]heptan-6-yl]-2-methylsulfonyl-pyridine-4-carboxamide] yielded an IC50 [1] of 1260 nM, a CC50 at 144 h [2] of over 100000 nM and an IC50 [3] of 1500 nM.
Compound `CCS(=O)(=O)c1cc(C(=O)NC2CC3(C2)CN(c2nc4cc(Cl)ccc4o2)C3)ccn1` [Example 53, N-[2-(5-chloro-1,3-benzoxazol-2-yl)-2-azaspiro[3.3]heptan-6-yl]-2-ethylsulfonyl-pyridine-4-carboxamide] has an IC50 [1] of 785 nM, a CC50 at 144 h [2] of 93200 nM and an IC50 [3] of 1410 nM.
With `CC(C)CS(=O)(=O)c1ccc(C(=O)NC2CC3(C2)CN(c2nc4cc(Cl)ccc4o2)C3)o1` [Example 54, N-[2-(5-chloro-1,3-benzoxazol-2-yl)-2-azaspiro[3.3]heptan-6-yl]-5-isobutylsulfonyl-furan-2-carboxamide] the IC50 [1] was 828 nM, the CC50 at 144 h [2] was 84500 nM and the IC50 [3] was 1270 nM.
`O=C(NC1CC2(C1)CN(c1nc3cc(Cl)ccc3o1)C2)c1ccnc(C(F)(F)F)c1` [Example 55, N-[2-(5-chloro-1,3-benzoxazol-2-yl)-2-azaspiro[3.3]heptan-6-yl]-2-(trifluoromethyl)pyridine-4-carboxamide] gave an IC50 [1] of 966 nM, a CC50 at 144 h [2] of 71100 nM and an IC50 [3] of 1220 nM.
`CS(=O)(=O)c1ccc(C(=O)NC2CC3(C2)CN(c2nc4cc(Cl)ccc4o2)C3)o1` [Example 56, N-[2-(5-chloro-1,3-benzoxazol-2-yl)-2-azaspiro[3.3]heptan-6-yl]-5-methylsulfonyl-furan-2-carboxamide] gave an IC50 [1] of 996 nM, a CC50 at 144 h [2] of over 100000 nM and an IC50 [3] of 1220 nM.
`N=S(=O)(CC1CC1)c1ccc(C(=O)NC2CC3(C2)CN(c2nc4cc(Cl)ccc4o2)C3)o1` (stereo not drawn) [Example 57, N-[2-(5-chloro-1,3-benzoxazol-2-yl)-2-azaspiro[3.3]heptan-6-yl]-5-(cyclopropylmethylsulfonimidoyl)furan-2-carboxamide] showed an IC50 [1] of 953 nM, a CC50 at 144 h [2] of over 100000 nM and an IC50 [3] of 996 nM.
`CCS(=O)(=O)c1ccc(C(=O)NC2CC3(C2)CN(c2nc4cc(Cl)ccc4o2)C3)o1` [Example 58, N-[2-(5-chloro-1,3-benzoxazol-2-yl)-2-azaspiro[3.3]heptan-6-yl]-5-ethylsulfonyl-furan-2-carboxamide] gave an IC50 [1] of 812 nM, a CC50 at 144 h [2] of over 100000 nM and an IC50 [3] of 918 nM.
With `O=C(NC1CC2(C1)CN(c1nc3cc(Cl)ccc3o1)C2)c1ccc(S(=O)(=O)NC2CC2)o1` [Example 59, N-[2-(5-chloro-1,3-benzoxazol-2-yl)-2-azaspiro[3.3]heptan-6-yl]-5-(cyclopropylsulfamoyl)furan-2-carboxamide] the IC50 [1] was 1460 nM, the CC50 at 144 h [2] was over 10000 nM and the IC50 [3] was 2840 nM.
With `O=C(NC1CC2(C1)CN(c1nc3cc(Cl)ccc3o1)C2)c1ccc(S(=O)(=O)NC2CC(F)(F)C2)o1` [Example 60, N-[2-(5-chloro-1,3-benzoxazol-2-yl)-2-azaspiro[3.3]heptan-6-yl]-5-[(3,3-difluorocyclobutyl)sulfamoyl]furan-2-carboxamide] the IC50 [1] was 2550 nM, the CC50 at 144 h [2] was over 10000 nM and the IC50 [3] was 2520 nM.
In the case of `O=C(NC1CC2(C1)CN(c1nc3cc(Cl)ccc3o1)C2)c1ccc([S+]([O-])CC2CC2)o1` (stereo not drawn) [Example 61, N-[2-(5-chloro-1,3-benzoxazol-2-yl)-2-azaspiro[3.3]heptan-6-yl]-5-(cyclopropylmethylsulfinyl)furan-2-carboxamide], the IC50 [1] is reported as 402 nM, the CC50 at 144 h [2] is reported as 96000 nM and the IC50 [3] is reported as 189 nM.
`CC(C)C[S+]([O-])c1ccc(C(=O)NC2CC3(C2)CN(c2nc4cc(Cl)ccc4o2)C3)o1` (stereo not drawn) [Example 62, N-[2-(5-chloro-1,3-benzoxazol-2-yl)-2-azaspiro[3.3]heptan-6-yl]-5-isobutylsulfinyl-furan-2-carboxamide] gave an IC50 [1] of 393 nM, a CC50 at 144 h [2] of 77400 nM and an IC50 [3] of 449 nM.
